Strand notation (5' to 3'): a small letter for the sugar, then the base; units joined by * are phosphorothioate-linked, units joined directly phosphodiester-linked; [ ] holds rarer units or linkages, { } end groups; capitals alone tell only the bases. e = 2'-O-(2-methoxyethyl) (MOE); [5mC] = 5-methylcytosine; d = 2'-deoxy (DNA)
Assays:
[1] = tested on: mouse RANKL mRNA; test: Antisense inhibition of mouse RANKL mRNA levels in C2C12 cells, quantitative real-time PCR (Table 2); format: cell-based; set-up: concentration or dose not given beside the values; details: averages from three experiments
Method: Cells were seeded into 24-well plates (Falcon-353047 at a density of ˜10,000 cells/cm^2 for use in antisense oligonucleotide transfection.
Cells are treated and data are obtained in triplicate. […] Cells were harvested 16-24 hours after oligonucleotide treatment.
PCR reagents were obtained from Invitrogen Corporation, (Carlsbad, Calif.).
Probes and primers to mouse RANKL were designed to hybridize to a mouse RANKL sequence, using published sequence information (GenBank accession number AF013170.1, incorporated herein as SEQ ID NO:ll). For mouse RANKL the PCR primers were: • forward primer: […] (SEQ ID NO:12) • reverse primer: […] (SEQ ID NO: 13) and • the PCR probe was: FAM-[…]-TAMRA (SEQ ID NO: 14) where FAM is the fluorescent reporter dye and TAMRA is the quencher dye. For mouse GAPDH the PCR primers were: • forward primer: […](SEQ ID NO:15) • reverse primer: […](SEQ ID NO:16) and the • PCR probe was: 5′ JOE-[…]-TAMRA 3′ (SEQ ID NO: 17) where JOE is the fluorescent reporter dye and TAMRA is the quencher dye.
In accordance with the present invention, a second series of antisense compounds was designed to target different regions of the mouse RANKL RNA, using published sequences (GenBank accession number AF013170.1, incorporated herein as SEQ ID NO: 11). […] All cytidine residues are 5-methylcytidines. […] If present “N.D.” indicates “no data”.

[2] = tested on: rat RANKL mRNA; test: Antisense inhibition of rat RANKL mRNA levels in UMR-106 cells, quantitative real-time PCR (Table 3); format: cell-based; set-up: concentration or dose not given beside the values; details: averages from three experiments
Summary of the method: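 UMR-106 cells transfected with antisense oligonucleotides (5-methylcytidine throughout) in triplicate, harvested 16-24 h after treatment. RANKL mRNA quantified by real-time RT-PCR with a FAM/TAMRA probe, using rat GAPDH (JOE/TAMRA probe) as the reference.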

Substance	% INHIB (inhibition of mouse RANKL mRNA levels) [1]	% INHIB (inhibition of rat RANKL mRNA levels) [2]
180788 (antisense eG*eT*eT*e[5mC]*eA*d[5mC]*dA*dA*dA*dG*dG*dT*d[5mC]*d[5mC]*dT*eG*eG*e[5mC]*eA*eG) [compound 180788]	62%	–
180789 (antisense eG*e[5mC]*eA*eG*eA*d[5mC]*dT*d[5mC]*d[5mC]*dG*d[5mC]*d[5mC]*dA*d[5mC]*dG*eG*e[5mC]*e[5mC]*e[5mC]*e[5mC]) [compound 180789]	34%	–
180790 (antisense eA*eG*e[5mC]*eA*eG*dA*d[5mC]*dT*d[5mC]*d[5mC]*dG*d[5mC]*d[5mC]*dA*d[5mC]*eG*eG*e[5mC]*e[5mC]*e[5mC]) [compound 180790]	59%	–
180791 (antisense e[5mC]*e[5mC]*eG*e[5mC]*e[5mC]*dG*dA*dG*d[5mC]*dA*dG*dA*d[5mC]*dT*d[5mC]*e[5mC]*eG*e[5mC]*e[5mC]*eA) [compound 180791]	44%	–
180792 (antisense eT*eG*e[5mC]*eT*e[5mC]*d[5mC]*dG*d[5mC]*dG*dA*dT*d[5mC]*dG*dT*dT*e[5mC]*eT*e[5mC]*eT*e[5mC]) [compound 180792]	77%	–
180793 (antisense eG*e[5mC]*e[5mC]*e[5mC]*eT*dG*d[5mC]*dT*d[5mC]*d[5mC]*dG*d[5mC]*dG*dA*dT*e[5mC]*eG*eT*eT*e[5mC]) [compound 180793]	74%	–
180794 (antisense e[5mC]*e[5mC]*eG*eG*e[5mC]*dG*d[5mC]*dA*dT*dG*dG*d[5mC]*dG*d[5mC]*dG*eG*e[5mC]*eG*e[5mC]*e[5mC]) [compound 180794]	0%	–
180795 (antisense eG*e[5mC]*eT*eG*eG*d[5mC]*d[5mC]*d[5mC]*dG*dG*d[5mC]*dG*d[5mC]*dA*dT*eG*eG*e[5mC]*eG*e[5mC]) [compound 180795]	62%	–
180796 (antisense eT*e[5mC]*eG*eG*e[5mC]*dT*dG*dG*d[5mC]*d[5mC]*d[5mC]*dG*dG*d[5mC]*dG*e[5mC]*eA*eT*eG*eG) [compound 180796]	67%	–
180797 (antisense eT*e[5mC]*eT*e[5mC]*eG*dG*d[5mC]*dT*dG*dG*d[5mC]*d[5mC]*d[5mC]*dG*dG*e[5mC]*eG*e[5mC]*eA*eT) [compound 180797]	60%	–
180798 (antisense e[5mC]*e[5mC]*eT*eT*e[5mC]*dG*dT*dG*dT*dG*dG*dG*dA*d[5mC]*dG*e[5mC]*e[5mC]*eG*eG*eG) [compound 180798]	34%	–
180799 (antisense e[5mC]*eG*eG*eG*eA*dG*dG*d[5mC]*dG*dG*d[5mC]*dG*dG*dG*dT*eG*eG*e[5mC]*eG*eG) [compound 180799]	52%	–
180800 (antisense eA*e[5mC]*eA*eT*eG*dG*dA*dG*d[5mC]*dG*dG*dG*dA*dG*dG*e[5mC]*eG*eG*e[5mC]*eG) [compound 180800]	54%	–
180801 (antisense eA*eA*e[5mC]*eA*eT*dG*dG*dA*dG*d[5mC]*dG*dG*dG*dA*dG*eG*e[5mC]*eG*eG*e[5mC]) [compound 180801]	40%	–
180803 (antisense eT*e[5mC]*eT*eT*e[5mC]*dA*d[5mC]*dT*d[5mC]*dT*d[5mC]*d[5mC]*dA*dG*dA*eG*eT*e[5mC]*eG*eA) [compound 180803]	55%	–
180804 (antisense e[5mC]*eA*eG*eT*eT*d[5mC]*d[5mC]*dT*dT*d[5mC]*dT*dG*d[5mC]*dA*d[5mC]*eG*eG*e[5mC]*e[5mC]*e[5mC]) [compound 180804]	44%	–
gtggcacaggcccaggagtt (eG*eT*eG*eG*e[5mC]*dA*d[5mC]*dA*dG*dG*d[5mC]*d[5mC]*d[5mC]*dA*dG*eG*eA*eG*eT*eT; antisense) [ISIS 286650, 2′-MOE gapmer targeted to rat RANKL]	–	at least 40%
tagagatcttggcccagcct (eT*eA*eG*eA*eG*dA*dT*d[5mC]*dT*dT*dG*dG*d[5mC]*d[5mC]*d[5mC]*eA*eG*e[5mC]*e[5mC]*eT; antisense) [ISIS 286615, 2′-MOE gapmer targeted to rat RANKL]	–	at least 40%
taggatccatctgcgctcga (eT*eA*eG*eG*eA*dT*d[5mC]*d[5mC]*dA*dT*d[5mC]*dT*dG*d[5mC]*dG*e[5mC]*eT*e[5mC]*eG*eA; antisense) [ISIS 286595, 2′-MOE gapmer targeted to rat RANKL]	–	at least 40%
tcacggagtctcagaattct (eT*e[5mC]*eA*e[5mC]*eG*dG*dA*dG*dT*d[5mC]*dT*d[5mC]*dA*dG*dA*eA*eT*eT*e[5mC]*eT; antisense) [ISIS 286601, 2′-MOE gapmer targeted to rat RANKL]	–	at least 40%
tcagtctatgtcttgaactt (eT*e[5mC]*eA*eG*eT*d[5mC]*dT*dA*dT*dG*dT*d[5mC]*dT*dT*dG*eA*eA*e[5mC]*eT*eT; antisense) [ISIS 286642, 2′-MOE gapmer targeted to rat RANKL]	–	at least 40%
tccagagtcgagtcctgcaa (eT*e[5mC]*e[5mC]*eA*eG*dA*dG*dT*d[5mC]*dG*dA*dG*dT*d[5mC]*d[5mC]*eT*eG*e[5mC]*eA*eA; antisense) [ISIS 286604, 2′-MOE gapmer targeted to rat RANKL]	–	at least 40%
tctgttaggatccatctgcg (eT*e[5mC]*eT*eG*eT*dT*dA*dG*dG*dA*dT*d[5mC]*d[5mC]*dA*dT*e[5mC]*eT*eG*e[5mC]*eG; antisense) [ISIS 286596, 2′-MOE gapmer targeted to rat RANKL]	–	at least 40%
tgtggccccacaatgtgttg (eT*eG*eT*eG*eG*d[5mC]*d[5mC]*d[5mC]*d[5mC]*dA*d[5mC]*dA*dA*dT*dG*eT*eG*eT*eT*eG; antisense) [ISIS 286607, 2′-MOE gapmer targeted to rat RANKL]	–	at least 40%
tgttggcgtacaggtaatag (eT*eG*eT*eT*eG*dG*d[5mC]*dG*dT*dA*d[5mC]*dA*dG*dG*dT*eA*eA*eT*eA*eG; antisense) [ISIS 286626, 2′-MOE gapmer targeted to rat RANKL]	–	at least 40%
tttgcacggccccttgaaag (eT*eT*eT*eG*e[5mC]*dA*d[5mC]*dG*dG*d[5mC]*d[5mC]*d[5mC]*d[5mC]*dT*dT*eG*eA*eA*eA*eG; antisense) [ISIS 286605, 2′-MOE gapmer targeted to rat RANKL]	–	at least 40%
ttttaacgacatataccatc (eT*eT*eT*eT*eA*dA*d[5mC]*dG*dA*d[5mC]*dA*dT*dA*dT*dA*e[5mC]*e[5mC]*eA*eT*e[5mC]; antisense) [ISIS 286630, 2′-MOE gapmer targeted to rat RANKL]	–	at least 40%
ttttgtacaacgtgggccac (eT*eT*eT*eT*eG*dT*dA*d[5mC]*dA*dA*d[5mC]*dG*dT*dG*dG*eG*e[5mC]*e[5mC]*eA*e[5mC]; antisense) [ISIS 286646, 2′-MOE gapmer targeted to rat RANKL]	–	at least 40%

Reference: patent US20050060764A1, “Mouse model for bone metabolism” (priority 2003, published 2005)
